# Data as given in ChEMBL document CHEMBL1155152, “Increased expression of ampC in Pseudomonas aeruginosa mutants selected with ciprofloxacin” (2007).
# Assays:
# Assay type in all cases: functional
# Pseudomonas aeruginosa [1] = assay: Increase in ampC gene expression in mexCD-oprJ overexpressing Pseudomonas aeruginosa 164M1-94C harboring p26PAD1 plasmid containing ampD gene by RT-PCR relative to wild-type
# Pseudomonas aeruginosa [2] = assay: Antibacterial activity against Pseudomonas aeruginosa 164
# Pseudomonas aeruginosa [3] = assay: Antibacterial activity against Pseudomonas aeruginosa 164M1
# Pseudomonas aeruginosa [4] = assay: Antibacterial activity against Pseudomonas aeruginosa 164M1-94C overexpressing mexCD-oprJ genes
# Pseudomonas aeruginosa [5] = assay: Antibacterial activity against Pseudomonas aeruginosa 164M1-84C overexpressing mexCD-oprJ genes
# Pseudomonas aeruginosa [6] = assay: Antibacterial activity against Pseudomonas aeruginosa 164M1 harboring p26PAD1 plasmid containing ampD gene
# Pseudomonas aeruginosa [7] = assay: Antibacterial activity against mexCD-oprJ overexpressing Pseudomonas aeruginosa 164M1-94C harboring p26PAD1 plasmid containing ampD gene
# Pseudomonas aeruginosa [8] = assay: Antibacterial activity against mexCD-oprJ overexpressing Pseudomonas aeruginosa 164M1-84C harboring p26PAD1 plasmid containing ampD gene
# Pseudomonas aeruginosa [9] = assay: Increase in ampC gene expression in Pseudomonas aeruginosa 164M1 by RT-PCR relative to wild-type
# Pseudomonas aeruginosa [10] = assay: Increase in ampD gene expression in Pseudomonas aeruginosa 164M1 by RT-PCR relative to wild-type
# Pseudomonas aeruginosa [11] = assay: Increase in ampDh2 gene expression in Pseudomonas aeruginosa 164M1 by RT-PCR relative to wild-type
# Pseudomonas aeruginosa [12] = assay: Increase in ampDh3 gene expression in Pseudomonas aeruginosa 164M1 by RT-PCR relative to wild-type
# Pseudomonas aeruginosa [13] = assay: Increase in ampC gene expression in Pseudomonas aeruginosa 164M1-94C overexpressing mexCD-oprJ genes by RT-PCR relative to wild-type
# Pseudomonas aeruginosa [14] = assay: Increase in ampD gene expression in Pseudomonas aeruginosa 164M1-94C overexpressing mexCD-oprJ genes by RT-PCR relative to wild-type
# Pseudomonas aeruginosa [15] = assay: Increase in ampDh2 gene expression in Pseudomonas aeruginosa 164M1-94C overexpressing mexCD-oprJ genes by RT-PCR relative to wild-type
# Pseudomonas aeruginosa [16] = assay: Increase in ampDh3 gene expression in Pseudomonas aeruginosa 164M1-94C overexpressing mexCD-oprJ genes by RT-PCR relative to wild-type
# Pseudomonas aeruginosa [17] = assay: Increase in ampC gene expression in Pseudomonas aeruginosa 164M1-84C overexpressing mexCD-oprJ genes by RT-PCR relative to wild-type
# Pseudomonas aeruginosa [18] = assay: Increase in ampD gene expression in Pseudomonas aeruginosa 164M1-84C overexpressing mexCD-oprJ genes by RT-PCR relative to wild-type
# Pseudomonas aeruginosa [19] = assay: Increase in ampDh2 gene expression in Pseudomonas aeruginosa 164M1-84C overexpressing mexCD-oprJ genes by RT-PCR relative to wild-type
# Pseudomonas aeruginosa [20] = assay: Increase in ampDh3 gene expression in Pseudomonas aeruginosa 164M1-84C overexpressing mexCD-oprJ genes by RT-PCR relative to wild-type
# Pseudomonas aeruginosa [21] = assay: Increase in ampC gene expression in Pseudomonas aeruginosa 164M1 harboring p26PAD1 plasmid containing ampD gene by RT-PCR relative to wild-type
smiles,measurement,setting,value
CC(C)(O/N=C(\C(=O)N[C@@H]1C(=O)N2C(C(=O)[O-])=C(C[n+]3ccccc3)CS[C@H]12)c1csc(N)n1)C(=O)O [CEFTAZIDIME],fold change (FC),Pseudomonas aeruginosa [1],0.91
same,MIC,Pseudomonas aeruginosa [2],2 µg/mL
same,MIC,Pseudomonas aeruginosa [3],96 µg/mL
same,MIC,Pseudomonas aeruginosa [4],48 µg/mL
same,MIC,Pseudomonas aeruginosa [5],48 µg/mL
same,MIC,Pseudomonas aeruginosa [6],4 µg/mL
same,MIC,Pseudomonas aeruginosa [7],2 µg/mL
same,MIC,Pseudomonas aeruginosa [8],2 µg/mL
same,fold change (FC),Pseudomonas aeruginosa [9],99
same,fold change (FC),Pseudomonas aeruginosa [10],1.3
same,fold change (FC),Pseudomonas aeruginosa [11],2.6
same,fold change (FC),Pseudomonas aeruginosa [12],2.1
same,fold change (FC),Pseudomonas aeruginosa [13],1165
same,fold change (FC),Pseudomonas aeruginosa [14],1.1
same,fold change (FC),Pseudomonas aeruginosa [15],2.6
same,fold change (FC),Pseudomonas aeruginosa [16],3.1
same,fold change (FC),Pseudomonas aeruginosa [17],1324
same,fold change (FC),Pseudomonas aeruginosa [18],1.2
same,fold change (FC),Pseudomonas aeruginosa [19],1.5
same,fold change (FC),Pseudomonas aeruginosa [20],1.6
same,fold change (FC),Pseudomonas aeruginosa [21],1.1
